According to patent US5302587A, “Platinum (II) complex and agent for treating malignant tumor” (Toray Industries, Inc., priority 1989, dated 1994):

What was measured:
[1] = system: Cisplatin-resistant mouse leukemia L1210/CDDP cells; experiment: Anti-tumor activity in cisplatin-resistant L1210-transplanted mice (Table 2); type: in vivo; details: L1210/CDDP-transplanted CDF1 mice
Protocol: In the abdominal cavities of CDFl mice (male, 6-week old, 5-10 mice/group, 105 mouse leukemia L1210 cells passaged in DBA/2 mice were transplanted. Defining the day of transplantation as Day 0, the compounds 1-5 of the present invention were separately administered intraperitoneally to mice on Day 1, Day 5 and Day 9, totaling 3 times. Each compound was administered after dissolving it in distilled water for injection. The evaluation of the anti-tumor activities of the platinum complexes against the L1210-transplanted mice was performed by T/C value which is obtained by the following equation: [formula]
In the abdominal cavities of CDFl mice (male, 6-week old, 5-10 mice/group), 105 Cisplatin-resistant mouse leukemia L1210/CDDP cells passaged in DBA/2 mice were transplanted. Defining the day of transplantation as Day 0, the compounds of the present invention and control drugs were separately administered intraperitoneally to mice on Day 1, Day 5 and Day 9, totaling 3 times.
The compounds of the present invention and carboplatin were administered after dissolving them in distilled water for injection and cisplatin was used after dissolving it in physiological saline for injection. The effectiveness of the compounds was evaluated by using the T/C value as in Example 7.

[2] = system: mouse leukemia cells L1210; experiment: Anti-tumor activity in L1210-transplanted mice (Reference Example 3, Table 4); type: in vivo; details: 0.05% Tween 80, L1210-transplanted CDF1 mice
Protocol: The Samples A, B and C synthesized in Reference Examples 1 and 2 were evaluated for their anti-tumor activities by the following method:
In the abdominal cavities of CDFl mice (male, 6-week old, 6-10 mice/group), 105 mouse leukemia cells L1210 subcultured in DBA/2 mice were transplanted. Taking the day of transplantation as Day 0, the test drugs were separately administered intraperitoneally to the mice on Day 1, Day 5 and Day 9, totaling 3 times. Each drug was administered after dissolving or suspending it in 0.05% Tween 80 solution. The evaluation of the effectiveness was performed based on the T/C value which is obtained by the following equation as well as the number of survived mice on Day 30. [formula]

[3] = 2.5 mg/kg i.p. on Day 1, 5 and 9
[4] = 10 mg/kg i.p. on Day 1, 5 and 9
[5] = 25 mg/kg i.p. on Day 1, 5 and 9
[6] = 7.5 mg/kg i.p. on Day 1, 5 and 9
[7] = 50 mg/kg i.p. on Day 1, 5 and 9
[8] = 100 mg/kg i.p. on Day 1, 5 and 9
[9] = 200 mg/kg i.p. on Day 1, 5 and 9

Structure (SMILES) | Number of Survived Mice (Day 30) [1, 5] | Survived Days (Mean ± Standard Deviation) [1, 5] [days] | T/C [1, 5] [%] | Number of Survived Mice (Day 30) ([2]; 1 mg/kg i.p. on Day 1, 5 and 9) | Number of Survived Mice (Day 30) [2, 4] | Survived Days (Mean ± Standard Deviation) [2, 4] [days] | T/C [2, 4] [%] | Number of Survived Mice (Day 30) [2, 5] | Survived Days (Mean ± Standard Deviation) [2, 5] [days] | T/C [2, 5] [%] | Number of Survived Mice (Day 30) [2, 7] | Survived Days (Mean ± Standard Deviation) [2, 7] [days] | T/C [2, 7] [%] | Number of Survived Mice (Day 30) [2, 8] | Survived Days (Mean ± Standard Deviation) [2, 8] [days] | T/C [2, 8] [%] | Number of Survived Mice (Day 30) [2, 9] | Survived Days (Mean ± Standard Deviation) [2, 9] [days] | T/C [2, 9] [%] | other results
N.N.[Cl][Pt][Cl] [Cisplatin] | 0/6 | 7.2 ± 1.6 | 79 |  |  |  |  |  |  |  |  |  |  |  |  |  |  |  |  | Number of Survived Mice (Day 30) [1, 3]: 0/6; Survived Days (Mean ± Standard Deviation) [1, 3]: 9.3 ± 1.0 days; T/C [1, 3]: 102%; Number of Survived Mice (Day 30) ([1]; 5 mg/kg i.p. on Day 1, 5 and 9): 0/6; Survived Days (Mean ± Standard Deviation) ([1]; 5 mg/kg i.p. on Day 1, 5 and 9): 8.3 ± 0.5 days; T/C ([1]; 5 mg/kg i.p. on Day 1, 5 and 9): 91%; Number of Survived Mice (Day 30) [1, 4]: 0/6; Survived Days (Mean ± Standard Deviation) [1, 4]: 8.7 ± 0.8 days; T/C [1, 4]: 96%; Number of Survived Mice (Day 30) [2, 3]: 0/6; Survived Days (Mean ± Standard Deviation) [2, 3]: 13.0 ± 2.3 days; T/C [2, 3]: 155%; Number of Survived Mice (Day 30) ([2]; 5 mg/kg i.p. on Day 1, 5 and 9): 0/5; Survived Days (Mean ± Standard Deviation) ([2]; 5 mg/kg i.p. on Day 1, 5 and 9): 13.8 ± 1.1 days; T/C ([2]; 5 mg/kg i.p. on Day 1, 5 and 9): 164%; Number of Survived Mice (Day 30) [2, 6]: 0/6; Survived Days (Mean ± Standard Deviation) [2, 6]: 18.3 ± 6.2 days; T/C [2, 6]: 218%
N.N.O=C([O-])C1(C(=O)[O-])CCC1.[Pt+2] [Carboplatin] | 0/6 | 9.0 ± 1.1 | 99 |  |  |  |  |  |  |  |  |  |  |  |  |  |  |  |  | Number of Survived Mice (Day 30) [1, 7]: 0/6; Survived Days (Mean ± Standard Deviation) [1, 7]: 9.7 ± 0.8 days; T/C [1, 7]: 107%; Number of Survived Mice (Day 30) [1, 8]: 0/6; Survived Days (Mean ± Standard Deviation) [1, 8]: 9.3 ± 0.8 days; T/C [1, 8]: 102%; Number of Survived Mice (Day 30) [1, 9]: 0/6; Survived Days (Mean ± Standard Deviation) [1, 9]: 7.3 ± 1.5 days; T/C [1, 9]: 80%
CC(=O)[C-]1C(=O)CCOC1=O.CC(=O)[C-]1C(=O)CCOC1=O.N[C@@H]1CCCC[C@H]1N.O.[Pt+2] (relative stereo) [Sample C, [Pt(II)(trans-l-1,2-diaminocyclohexane)](3-acetyltetrahydropyran-2,4-dione)2.H2 O] |  |  |  | 0/6 | 0/6 | 9.8 ± 1.6 | 117 | 0/6 | 9.5 ± 0.5 | 113 | 0/6 | 8.7 ± 2.2 | 104 | 0/6 | 8.3 ± 0.8 | 99 | 0/6 | 6.2 ± 1.5 | 74 | Survived Days (Mean ± Standard Deviation) ([2]; 1 mg/kg i.p. on Day 1, 5 and 9): 8.7 ± 0.8 days; T/C ([2]; 1 mg/kg i.p. on Day 1, 5 and 9): 104%
CC(=O)[C-]1C(=O)CC(C)OC1=O.CC(=O)[C-]1C(=O)CC(C)OC1=O.N[C@@H]1CCCC[C@H]1N.O.[Pt+2] (relative stereo) [Sample A, [Pt(II)(trans-l-1,2-diaminocyclohexane)](3-acetyl-6-methyltetrahydropyran-2,4-dione)2.H2 O] |  |  |  | 0/6 | 0/6 | 11.5 ± 1.2 | 137 | 0/6 | 14.2 ± 3.2 | 169 | 0/6 | 17.0 ± 3.0 | 202 | 0/6 | 15.5 ± 5.0 | 185 | 0/6 | 6.0 | 71 | 
CC(=O)[C-]1C(=O)CC(C)OC1=O.CC(=O)[C-]1C(=O)CC(C)OC1=O.N[C@@H]1CCCC[C@H]1N.O.[Pt+2] (relative stereo) [Sample B, [Pt(II)(trans-l-1,2-diaminocyclohexane)](3-acetyl-6-methyltetrahydropyran-2,4-dione)2.H2 O] |  |  |  |  |  |  |  | 0/6 | 8.5 ± 0.5 | 101 | 0/6 | 8.8 ± 0.8 | 105 | 0/6 | 9.2 ± 1.5 | 110 | 0/6 | 9.5 ± 2.3 | 113 | 
